Measurements published in PMC11058299, “Synthesis, molecular docking evaluation for LOX and COX-2 inhibition and determination of in-vivo analgesic potentials of aurone derivatives” (Heliyon, 2024).

Key:
[1] = target: T1, COX-2 enzyme (Homo sapiens, UniProt P35354); assay: COX-2 inhibitory assay; format: biochemical; details: Table 2
T1 construct: purchased Sigma Aldrich
T1 sequence (P35354 18-604): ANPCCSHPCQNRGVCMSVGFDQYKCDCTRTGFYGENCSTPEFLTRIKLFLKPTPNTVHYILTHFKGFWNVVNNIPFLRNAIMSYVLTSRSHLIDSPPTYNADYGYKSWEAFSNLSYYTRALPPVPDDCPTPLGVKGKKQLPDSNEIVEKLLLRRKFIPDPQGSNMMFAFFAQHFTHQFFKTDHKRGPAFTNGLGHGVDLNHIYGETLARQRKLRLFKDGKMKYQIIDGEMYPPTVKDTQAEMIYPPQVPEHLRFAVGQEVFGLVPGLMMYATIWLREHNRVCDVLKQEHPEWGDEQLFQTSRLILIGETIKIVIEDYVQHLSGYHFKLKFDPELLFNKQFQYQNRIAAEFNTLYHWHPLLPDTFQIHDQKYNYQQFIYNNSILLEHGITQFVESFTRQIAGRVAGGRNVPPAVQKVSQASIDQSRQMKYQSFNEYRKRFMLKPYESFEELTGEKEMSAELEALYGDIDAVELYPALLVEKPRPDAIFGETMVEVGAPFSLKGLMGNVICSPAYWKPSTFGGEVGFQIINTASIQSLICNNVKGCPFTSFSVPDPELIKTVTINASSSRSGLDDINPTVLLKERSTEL
Experimental: COX-2 inhibition was measured spectrophotometrically at 550 nm after the formation of oxidized form of tetramethlenephenylenediamine (TMPD). This assay was conducted according to previously reported procedure. […] The reaction contained 10 μL COX-2 enzymes (100 μM in diluted in DMSO), 10 μL haem of 2.2 mM diluted in DMSO, tris buffers (pH. 8, 100 μl) and drug samples according to the above stated procedure. The reaction was started by the addition of freshly prepared TMPD and methanolic arachidonic acid (AA). Celecoxib is used as a reference drug in this assay. After 5 min of incubation at 25–28C, the absorbance was measured at 550 nm and inhibition was calculated.

[2] = tested on: heat induced tail flicking latency; assay: Tail immersion test; format: in vivo; details: mice; for tail flicking latency: after 90 min, without Naloxone
Experimental: Group I: Control, Group II-XV: WE-1 to WE-7 (sample compounds) at dose of 10 mg/kg and 20 mg/kg and Group XVI: Standard. The control (Group I) was given normal saline. Group II-XV received 10 mg/kg and 20 mg/kg of test sample (WE-1 to WE-7).
The cut-off time was set at 25 s, and the time taken for the mice to flick their tails out of the water was recorded at 30, 60, 90, and 120-min intervals. An increase in the time of tail immersion was compared to the control group to determine the analgesic effect of the tested drugs. The percentage of inhibition was calculated at the time interval showing the highest effect.

## COc1ccc(C=C2Oc3ccccc3C2=O)cc1OC [WE-4, 2-(3,4-dimethoxybenzylidene)benzofuran-3(2H)-one]
other
  melting point: 175 to 178 °C
[1]
  IC50: 0.22 µM
[2]; 10 mg/kg
  tail flicking latency: 11.23 ± 0.93
[2]; 20 mg/kg oral, at interval of highest effect
  percentage inhibition of pain, tail immersion: 74.31%
[2]; 20 mg/kg
  tail flicking latency: 13.41 ± 1.21
